Measured values reported in ChEMBL document CHEMBL1201862, “PubChem BioAssay data set” (2004).
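Dose response: 5 concentrations. Exposure: 48 h. Format: 96-well plates. Endpoint: linear interpolation; highest concentration if not reached. Here, GI50 denotes the concentration required for 50% inhibition of growth.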 The source made the active and inactive calls. No stated cut-off is given here; in the data, active = GI50 up to about 1.1 µM and inactive = higher.

How the values were obtained:
Experiment in all cases: NCI tumour cell line growth inhibition, 48 h
EKVX = test system: EKVX
M14 = test system: M14
786-0 = test system: 786-0
SK-MEL-2 = test system: SK-MEL-2
SW-620 = test system: SW-620
SK-OV-3 = test system: SK-OV-3
TK-10 = test system: TK-10
DLD-1 = test system: DLD-1
HOP-18 = test system: HOP-18
HOP-92 = test system: HOP-92
SNB-19 = test system: SNB-19
CCRF-CEM = test system: CCRF-CEM
OVCAR-3 = test system: OVCAR-3
MOLT-4 = test system: MOLT-4
SR = test system: SR
XF498 = test system: XF498
LXFL 529 = test system: LXFL 529
A549 = test system: A549
SF-295 = test system: SF-295
HCT-116 = test system: HCT-116
HCC 2998 = test system: HCC 2998
SN12C = test system: SN12C
NCI-H522 = test system: NCI-H522
UACC-257 = test system: UACC-257
OVCAR-5 = test system: OVCAR-5
UO-31 = test system: UO-31
OVCAR-8 = test system: OVCAR-8
COLO 205 = test system: COLO 205
SF-268 = test system: SF-268
IGROV-1 = test system: IGROV-1
HL-60 = test system: HL-60
SK-MEL-5 = test system: SK-MEL-5
RXF 631 = test system: RXF 631
HT-29 = test system: HT-29
NCI-H226 = test system: NCI-H226
SF-539 = test system: SF-539
RPMI-8226 = test system: RPMI-8226
UACC-62 = test system: UACC-62
NCI-H460 = test system: NCI-H460
DMS-273 = test system: DMS-273
ACHN = test system: ACHN
SNB-75 = test system: SNB-75
HCT-15 = test system: HCT-15
HOP-62 = test system: HOP-62
Malme-3M = test system: Malme-3M
NCI-H23 = test system: NCI-H23
SK-MEL-28 = test system: SK-MEL-28
OVCAR-4 = test system: OVCAR-4
KM-20L2 = test system: KM-20L2
SNB-78 = test system: SNB-78
LOX IMVI = test system: LOX IMVI
RXF 393 = test system: RXF 393
CAKI-1 = test system: CAKI-1
K562 = test system: K562
KM12 = test system: KM12
A498 = test system: A498
U-251 = test system: U-251
DMS-114 = test system: DMS-114
M19-MEL = test system: M19-MEL

Measured: GI50

COc1cc2c(c(OC)c1OC)-c1ccc(SC)c(=O)cc1[C@@H](NCc1ccc(F)cc1)CC2
< 0.0075 µM: HCT-15
active: EKVX 0.0693 µM | M14 < 0.0075 µM | 786-0 < 0.0075 µM | SK-MEL-2 < 0.0075 µM | SW-620 < 0.0075 µM | SK-OV-3 < 0.0075 µM | DLD-1 < 0.0075 µM | HOP-92 < 0.0075 µM | SNB-19 < 0.0075 µM | CCRF-CEM < 0.0075 µM | OVCAR-3 < 0.0075 µM | MOLT-4 < 0.0075 µM | SR < 0.0075 µM | XF498 < 0.0075 µM | LXFL 529 < 0.0075 µM | A549 < 0.0075 µM | SF-295 < 0.0075 µM | HCT-116 < 0.0075 µM | HCC 2998 < 0.0075 µM | SN12C < 0.0075 µM | NCI-H522 < 0.0075 µM | UACC-257 0.0117 µM | UO-31 1.03 µM | OVCAR-8 < 0.0075 µM | COLO 205 < 0.0075 µM | SF-268 < 0.0075 µM | IGROV-1 < 0.0075 µM | HL-60 0.1 µM | SK-MEL-5 < 0.0075 µM | RXF 631 < 0.0075 µM | HT-29 < 0.0075 µM | NCI-H226 < 0.0075 µM | SF-539 < 0.0075 µM | RPMI-8226 < 0.0075 µM | UACC-62 < 0.0075 µM | NCI-H460 < 0.0075 µM | DMS-273 < 0.0075 µM | ACHN < 0.0075 µM | HOP-62 < 0.0075 µM | Malme-3M < 0.0075 µM | NCI-H23 < 0.0075 µM | KM-20L2 < 0.0075 µM | SNB-78 < 0.0075 µM | LOX IMVI < 0.0075 µM | RXF 393 < 0.0075 µM | K562 < 0.0075 µM | KM12 < 0.0075 µM | A498 < 0.0075 µM | U-251 < 0.0075 µM
inactive: TK-10 12.3 µM | HOP-18 9.1 µM | OVCAR-5 2.54 µM | SNB-75 12.7 µM | SK-MEL-28 8.77 µM | OVCAR-4 11.6 µM | CAKI-1 1.69 µM

c1ccc(OC2=NC3=S(S2)SC(Oc2ccccc2)=N3)cc1
18.9 µM: HCT-15
inactive: EKVX 21.5 µM | DMS-114 19.9 µM | M14 18.4 µM | 786-0 15.5 µM | SK-MEL-2 13.6 µM | SW-620 15 µM | SK-OV-3 28.2 µM | TK-10 17.8 µM | DLD-1 16.5 µM | M19-MEL 17.8 µM | SNB-19 20.4 µM | CCRF-CEM 9.59 µM | OVCAR-3 14.5 µM | MOLT-4 9.98 µM | XF498 15.7 µM | A549 21.6 µM | SF-295 17 µM | HCT-116 17.5 µM | HCC 2998 19.5 µM | SN12C 20.6 µM | NCI-H522 16.4 µM | UACC-257 16.7 µM | OVCAR-5 20.5 µM | UO-31 18.1 µM | OVCAR-8 22.2 µM | COLO 205 17.9 µM | SF-268 21.7 µM | IGROV-1 20.8 µM | HL-60 16.8 µM | SK-MEL-5 18 µM | RXF 631 25.1 µM | HT-29 21.4 µM | NCI-H226 24.3 µM | SF-539 22.3 µM | RPMI-8226 4.83 µM | UACC-62 18.9 µM | NCI-H460 30.2 µM | DMS-273 25.8 µM | ACHN 19.2 µM | SNB-75 24.3 µM | HOP-62 26.2 µM | Malme-3M 18.3 µM | NCI-H23 21.3 µM | KM-20L2 22.3 µM | SNB-78 20.5 µM | LOX IMVI 19.6 µM | RXF 393 6.01 µM | CAKI-1 17.7 µM | K562 16.5 µM | KM12 16.9 µM | A498 25.1 µM | U-251 11.2 µM
